Experimental data from US5886190A, “Rapid synthesis and use of 18F-fluoromisonidazole and analogs” (priority 1997, dated 1999).
Where “and” joins values, the source holds several entries; their conditions need not be identical. Identical values can stand only once. Like-named read-outs stand apart in the source and are kept apart here.

What was measured:
[1] = tested on: mammary tumor cells (13762 tumor cell line); conditions: for Tumor/blood count density ratio / Tumor/liver count density ratio / Tumor/muscle count density ratio / Blood, percent of injected dose/gram weight / Bone, percent of injected dose/gram weight / Kidney, percent of injected dose/gram weight / Liver, percent of injected dose/gram weight / Lung, percent of injected dose/gram weight / Muscle, percent of injected dose/gram weight / Spleen, percent of injected dose/gram weight / Tumor, percent of injected dose/gram weight: 10 μCi/rat iv, N = 3
Protocol: (§1) The synthesis scheme for [^18 F]FETNIM is depicted in FIG. 6. Biodistribution studies of [^18 F]FETNIM were performed at 1, 2 and 4 hours in mammary tumor-bearing rats (10 μCi, iv, N=3/time interval). Autoradiograms were performed at 1 hour postinjection of [^18 F]FETNIM, and a comparison has been made with [^18 F]fluoromisonidazole (FMISO). Intratumoral oxygen tension measurements were performed using the Eppendorf computerized histographic system. Twenty to twenty-five pO2 measurements along each of 2 to 3 linear tracks were performed at 0.4 mm intervals on each tumor. PET imaging studies of [^18 F]FETNIM were performed in rabbits bearing V2 tumors (N=3, 4 mCI, iv) which were located on the right leg.
Female Fischer 344 rats (250-275 g) (Harlan, Inc., Indianapolis, Ind.) were inoculated with mammary tumor cells in the lumbar area using a 13762 tumor cell line (s.c. 10^5 cells/rat). […] Three groups of rats (N=3/group) were anesthetized with ketamine (10-15 mg/rat). The ^18 F-FETNIM reconstituted in 5% ethanol/saline was given to rats (10 μCi/rat, iv) and tissue distribution was conducted at 1h, 2h and 4h intervals. The tissues were excised, weighed and counted for radioactivity. The percent of injected dose per gram of tissue weight was determined.

VX2 tumor = conditions: 4 mCi; 1 hour postinjection
Protocol: as §1
PET imaging was performed with a positron camera (Positron Corporation, Houston, Tex.). The tomograph has a field-of-view of 42 cm on transverse and 12 cm on coronal planes. The axial resolution on the reconstructed plane is 1.2 cm.
Three male New Zealand white rabbits each weighing 3 kg were inoculated at a single site in the right buttock area with a 0.5 ml suspension of minced VX2 tumor fragments (10^6 cells/rabbit). The tumors are maintained through serial animal passage and are available from the Department of Veterinary Medicine (The University of Texas M.D. Anderson Cancer Center, Houston, Tex.). […]

mammary tumor = assay: Autoradiographic studies in tumor-bearing rats; conditions: 1 hour postinjection
Protocol: as §1
Female Fischer 344 mammary tumor-bearing rats (n=3) after receiving [^18 F]FETNIM (2 mCi, iv) were sacrificed at 1 h. […] The rats were sacrificed at 1 hour postinjection. The rat body was fixed in a carboxymethyl cellulose (4%) block. The frozen body in a block was mounted to a cryostat (LKB 2250 cryo-microtome, Ijamsville, Md.) and 40 μm coronal sections were made. The section was freeze dried, then mounted on a x-ray film (X-Omat AR, Kodak, Rochester, N.Y.) for 24 hours.

[2] = Hydrophilicity (from autoradiogram and chemistry); type: physicochemical; conditions: relative to comparator named in value
hypoxic cells = assay: Selectivity to hypoxic cells (PET imaging, autoradiograms, biodistribution); conditions: in vivo
Protocol: as §1
PET imaging was performed with a positron camera (Positron Corporation, Houston, Tex.). The tomograph has a field-of-view of 42 cm on transverse and 12 cm on coronal planes. The axial resolution on the reconstructed plane is 1.2 cm. […]
Female Fischer 344 rats (250-275 g) (Harlan, Inc., Indianapolis, Ind.) were inoculated with mammary tumor cells in the lumbar area using a 13762 tumor cell line (s.c. 10^5 cells/rat). […] The tissues were excised, weighed and counted for radioactivity. The percent of injected dose per gram of tissue weight was determined.

cancer of the pharynx = conditions: cited from earlier work; for Radiosensitizer potency: human, in vivo; for Clinical benefit on addition: patients with high hemoglobin levels and cancer of the pharynx
patients = conditions: cited from earlier work; for Dose-limiting toxicity: clinical trials
[3] = in mice; cited from earlier work
[4] = 1 hour, listed as [^18 F] Fluoroerythronitroimidazole
[5] = 2 hour, listed as [^18 F] Fluoroerythronitroimidazole
[6] = 4 hour, listed as [^18 F] Fluoroerythronitroimidazole

## O=[N+]([O-])c1nccn1C[C@H](O)[C@H](O)CF [[^18 F]FETNIM, [^18 F]fluoroerythro-2-nitroimidazole]
[1]; 1, 2 and 4 h
  Tumor/muscle, tumor/blood and tumor/liver count density ratios, change with time: showed increases with time
[1]; 1 hour
  Tumor/blood count density ratio: 2.29±0.599
  Tumor/liver count density ratio: 1.7600 ± 0.4415
  Tumor/muscle count density ratio: 0.66±0.267
  Blood, percent of injected dose/gram weight: 0.3493 ± 0.02173% of Injected Dose/Gram Weight
  Bone, percent of injected dose/gram weight: 0.2570 ± 0.14% of Injected Dose/Gram Weight
  Kidney, percent of injected dose/gram weight: 0.8860 ± 0.00424% of Injected Dose/Gram Weight
  Liver, percent of injected dose/gram weight: 0.4530 ± 0.01493% of Injected Dose/Gram Weight
  Lung, percent of injected dose/gram weight: 0.3577 ± 0.00723% of Injected Dose/Gram Weight
  Muscle, percent of injected dose/gram weight: 1.2600 ± 0.08627% of Injected Dose/Gram Weight
  Spleen, percent of injected dose/gram weight: 0.3183 ± 0.02011% of Injected Dose/Gram Weight
  Tumor, percent of injected dose/gram weight: 0.7957 ± 0.2036% of Injected Dose/Gram Weight
[1]; [4]
  Tumor/blood count density ratio: 2.2900 ± 0.5994
  Tumor/muscle count density ratio: 0.6602 ± 0.2666
[1]; 2 hour
  Tumor/blood count density ratio: 2.41±0.567
  Tumor/liver count density ratio: 1.7700 ± 0.2561
  Tumor/muscle count density ratio: 2.11±0.347
  Blood, percent of injected dose/gram weight: 0.1950 ± 0.02828% of Injected Dose/Gram Weight
  Bone, percent of injected dose/gram weight: 0.0810 ± 0.00424% of Injected Dose/Gram Weight
  Kidney, percent of injected dose/gram weight: 0.5145 ± 0.02334% of Injected Dose/Gram Weight
  Liver, percent of injected dose/gram weight: 0.3123 ± 0.08225% of Injected Dose/Gram Weight
  Lung, percent of injected dose/gram weight: 0.2107 ± 0.05713% of Injected Dose/Gram Weight
  Muscle, percent of injected dose/gram weight: 0.2670 ± 0.09036% of Injected Dose/Gram Weight
  Spleen, percent of injected dose/gram weight: 0.2013 ± 0.05918% of Injected Dose/Gram Weight
  Tumor, percent of injected dose/gram weight: 0.5516 ± 0.1582% of Injected Dose/Gram Weight
[1]; [5]
  Tumor/blood count density ratio: 2.4100 ± 0.5672
  Tumor/muscle count density ratio: 2.1100 ± 0.3468
[1]; 4 hour
  Tumor/blood count density ratio: 8.0±2.42 and 8.02±2.420
  Tumor/liver count density ratio: 4.3300 ± 1.31
  Tumor/muscle count density ratio: 5.92±2.240
  Blood, percent of injected dose/gram weight: 0.0993 ± 0.01266% of Injected Dose/Gram Weight
  Bone, percent of injected dose/gram weight: 0.0753 ± 0.0157% of Injected Dose/Gram Weight
  Kidney, percent of injected dose/gram weight: 0.4663 ± 0.06866% of Injected Dose/Gram Weight
  Liver, percent of injected dose/gram weight: 0.1843 ± 0.02458% of Injected Dose/Gram Weight
  Lung, percent of injected dose/gram weight: 0.1027 ± 0.02122% of Injected Dose/Gram Weight
  Muscle, percent of injected dose/gram weight: 0.1377 ± 0.01893% of Injected Dose/Gram Weight
  Spleen, percent of injected dose/gram weight: 0.0953 ± 0.01401% of Injected Dose/Gram Weight
  Tumor, percent of injected dose/gram weight: 0.8113 ± 0.3377% of Injected Dose/Gram Weight
[1]; [6]
  Tumor/blood count density ratio: 8.0200 ± 2.42
  Tumor/muscle count density ratio: 5.9200 ± 2.24
VX2 tumor
  SUV value of the tumor: greater than 10
Mammary tumor; 2 mCi iv
  Tumor visualization by autoradiography: the tumor could be visualized 1 hour postinjection
  Uptake in the center region of the tumor: lack of uptake
Mammary tumor
  Uptake in intestines and colon: high uptake
  Uptake in medullary of the kidney area: higher uptake
Mammary tumor; autoradiogram
  Differentiation of hypoxic versus necrotic regions in the tumor: could differentiate hypoxic versus necrotic regions in the tumor
[2]
  Hydrophilicity: more hydrophilic than [^18 F]FMISO
[2]; listed as [^18 F]fluoroerythronitroimidazole
  Hydrophilicity: more hydrophilic than misonidazole
Hypoxic cells
  Selectivity to hypoxic cells: selective to hypoxic cells

## O=C(Cn1ccnc1[N+](=O)[O-])NCCO [etanidazole]
Cancer of the pharynx
  Radiosensitizer potency: potent radiosensitizers
  Clinical benefit on addition: great benefit
patients
  Dose-limiting toxicity: peripheral neuropathy that progressed to central nervous system toxicity if drug administration was not stopped

## COCC(O)Cn1ccnc1[N+](=O)[O-] (centres unmarked) [misonidazole]
Cancer of the pharynx
  Radiosensitizer potency: potent radiosensitizers
  Clinical benefit on addition: great benefit
patients
  Dose-limiting toxicity: peripheral neuropathy that progressed to central nervous system toxicity if drug administration was not stopped
patients; human, in vivo
  Most common side effect: peripheral sensory neuropathy of the hands and feet
patients; large single doses
  Toxicity after large single doses: convulsions
patients; small multiple doses
  Toxicity following small multiple doses: encephalopathies
[3]
  Dose which affects the neurotransmitter system: 0.76 mg/g
